Experimental data: patent US9181264B2, “Fused heteroaryls and their uses” (Hutchison MediPharma Limited, priority 2011, dated 2015)

Key:
PI3Kα kinase = target: T1, PI3Kα kinase (Homo sapiens, UniProt P42336); test: PI3Ka Transcreener ADP assay (fluorescence polarization); format: biochemical; conditions: 10 μM ATP, 30 μmol/L lipid substrate; read-out: IC50, inhibition of PI3Kα kinase
T1 construct: purchased Invitrogen PV4788
Procedure: Fluorescence polarization was used in this assay. The final conditions for kinase assay are 10 μM of ATP, 0.2 ng/μL of PI3Kα kinase, 30 μmol/L of lipid substrate and assay buffer (50 mmol/L of HEPES (pH 7.5), 100 mmol/L of NaCl, 1 mmol/L of EGTA, 3 mmol/L of MgCl2, 1 mmol/L of DTT and 0.03% CHAPS and 2% DMSO).
5 μL of test compounds in 10% DMSO and 10 μL of 0.5 ng/μL PI3K kinase (Invitrogen, PV4788) in assay buffer are put into a 96-well plate (Greiner, Cat. 675076), and then the reaction is started by the addition of 10 μL of 75 μmol/L PIP2, (PS Lipid Substrate Invitrogen, PV5100), and 25 μmol/L ATP mixture. After the mixture is incubated for 60 minutes at room temperature, 25 μL of transcreener Kinase Kit reagent—ADP Detection Mix—(Bellbrook Labs) is added, and the reaction is continued for an additional 1.5 hours. At the end, the plate is read in a Tecan Infinite F500 at excitation of 610 nm and emission of 670 nm.
A standard curve for ADP is obtained in a parallel way by replacing compound and PI3Kα kinase with DMSO and assay buffer, respectively. Different concentration of ADP, 0-10 μM, and ATP, 10-0 μM (ATP+ADP equal to 10 μM) are applied instead of a fixed concentration of ATP in this standard curve assay. Other conditions are the same as described above. The standard curve is plotted using Origin 8.0 software. The inhibition of test compound on ADP production is calculated based on ADP concentration from standard curve. IC50 is obtained using XLfit 2.0 software.

mTOR kinase = target: T2, mTOR kinase (Homo sapiens, UniProt P42345); test: mTOR LanthaScreen TR-FRET assay; format: biochemical; conditions: 10 μmol/L ATP, GFP-4EBP1 substrate; read-out: IC50, inhibition of mTOR
T2 construct: purchased Invitrogen PV4753
T2 sequence (P42345 1360-2549 limits assumed): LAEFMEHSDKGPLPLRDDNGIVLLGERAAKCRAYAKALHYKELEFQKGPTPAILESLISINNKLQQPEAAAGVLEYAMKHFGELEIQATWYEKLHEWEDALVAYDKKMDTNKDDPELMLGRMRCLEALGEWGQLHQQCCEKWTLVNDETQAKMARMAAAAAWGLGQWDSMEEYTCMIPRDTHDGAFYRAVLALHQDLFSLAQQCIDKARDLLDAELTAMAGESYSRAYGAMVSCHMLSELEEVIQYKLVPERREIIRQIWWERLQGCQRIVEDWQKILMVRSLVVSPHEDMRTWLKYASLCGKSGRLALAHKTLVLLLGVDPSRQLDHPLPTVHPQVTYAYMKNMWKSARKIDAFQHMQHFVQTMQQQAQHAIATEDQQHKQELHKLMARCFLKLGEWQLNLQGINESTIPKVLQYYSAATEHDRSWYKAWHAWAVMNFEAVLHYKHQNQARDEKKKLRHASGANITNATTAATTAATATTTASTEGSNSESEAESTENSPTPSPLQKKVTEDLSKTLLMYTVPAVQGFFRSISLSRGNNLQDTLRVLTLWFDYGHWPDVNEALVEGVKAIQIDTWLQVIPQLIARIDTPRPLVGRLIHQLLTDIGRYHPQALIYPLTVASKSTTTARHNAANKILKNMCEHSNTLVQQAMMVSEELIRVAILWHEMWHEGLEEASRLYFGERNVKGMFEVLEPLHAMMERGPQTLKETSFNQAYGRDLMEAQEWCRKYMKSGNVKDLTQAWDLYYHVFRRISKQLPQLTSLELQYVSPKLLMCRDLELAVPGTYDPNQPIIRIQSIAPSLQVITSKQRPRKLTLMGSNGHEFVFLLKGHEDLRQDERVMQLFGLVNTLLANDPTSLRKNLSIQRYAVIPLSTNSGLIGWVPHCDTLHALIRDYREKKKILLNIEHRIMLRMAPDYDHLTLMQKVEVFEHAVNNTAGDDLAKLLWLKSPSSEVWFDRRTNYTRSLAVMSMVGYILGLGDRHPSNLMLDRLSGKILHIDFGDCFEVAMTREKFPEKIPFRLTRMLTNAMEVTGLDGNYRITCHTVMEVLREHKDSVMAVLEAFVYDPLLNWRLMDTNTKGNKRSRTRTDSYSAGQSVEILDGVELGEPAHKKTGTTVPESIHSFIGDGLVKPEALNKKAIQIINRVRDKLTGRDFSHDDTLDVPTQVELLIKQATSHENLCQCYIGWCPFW
Procedure: Compounds are tested using LanthaScreen TR-FRET Assay. The kinase reaction is completed in 384-well black plate (Corning, Cat. 3676). The final conditions for kinase assay are: 10 μmol/L of ATP, 0.2 ng/μL of mTOR kinase, 0.4 μmol/L of GFP-4EBP1 substrate and assay buffer (50 mmol/L of HEPES, pH 7.5, 0.01% of Tween 20, 1 mmol/L of EGTA, 10 mmol/L of MnCl2, 2 mmol/L of DTT and 1% DMSO).
To each well, 2.5 μL of test compounds in 4% DMSO and 2.5 μL of 0.8 ng/μL mTOR kinase (Invitrogen, PV4753) diluted in assay buffer are added. The reaction is initiated by the addition of 5 μL mixture of 0.8 μmol/L GFP-4EBP1 Substrate (Invitorgen, PV4759) and 20 μmol/L ATP mixtures. The mixture is incubated at room temperature for 60 minutes. 10 μL of 20 mmol/L EDTA and 4 nmol/L Tb-anti-p4EBP1 [pThr46] antibody (Invitrogen, PV4755) diluted in TR-FRET dilution buffer are added and incubated for an additional 1 hour. The plate is then read in a BioTek Synergy2 Reader at excitation of 340 nm and emission of 490 nm and 528 nm.
The inhibition of test compound is calculated based on the ratio of 528 nm/490 nm. IC50 of test compound is obtained using XLfit 2.0 software.

T1 sequence (P42336 whole entry): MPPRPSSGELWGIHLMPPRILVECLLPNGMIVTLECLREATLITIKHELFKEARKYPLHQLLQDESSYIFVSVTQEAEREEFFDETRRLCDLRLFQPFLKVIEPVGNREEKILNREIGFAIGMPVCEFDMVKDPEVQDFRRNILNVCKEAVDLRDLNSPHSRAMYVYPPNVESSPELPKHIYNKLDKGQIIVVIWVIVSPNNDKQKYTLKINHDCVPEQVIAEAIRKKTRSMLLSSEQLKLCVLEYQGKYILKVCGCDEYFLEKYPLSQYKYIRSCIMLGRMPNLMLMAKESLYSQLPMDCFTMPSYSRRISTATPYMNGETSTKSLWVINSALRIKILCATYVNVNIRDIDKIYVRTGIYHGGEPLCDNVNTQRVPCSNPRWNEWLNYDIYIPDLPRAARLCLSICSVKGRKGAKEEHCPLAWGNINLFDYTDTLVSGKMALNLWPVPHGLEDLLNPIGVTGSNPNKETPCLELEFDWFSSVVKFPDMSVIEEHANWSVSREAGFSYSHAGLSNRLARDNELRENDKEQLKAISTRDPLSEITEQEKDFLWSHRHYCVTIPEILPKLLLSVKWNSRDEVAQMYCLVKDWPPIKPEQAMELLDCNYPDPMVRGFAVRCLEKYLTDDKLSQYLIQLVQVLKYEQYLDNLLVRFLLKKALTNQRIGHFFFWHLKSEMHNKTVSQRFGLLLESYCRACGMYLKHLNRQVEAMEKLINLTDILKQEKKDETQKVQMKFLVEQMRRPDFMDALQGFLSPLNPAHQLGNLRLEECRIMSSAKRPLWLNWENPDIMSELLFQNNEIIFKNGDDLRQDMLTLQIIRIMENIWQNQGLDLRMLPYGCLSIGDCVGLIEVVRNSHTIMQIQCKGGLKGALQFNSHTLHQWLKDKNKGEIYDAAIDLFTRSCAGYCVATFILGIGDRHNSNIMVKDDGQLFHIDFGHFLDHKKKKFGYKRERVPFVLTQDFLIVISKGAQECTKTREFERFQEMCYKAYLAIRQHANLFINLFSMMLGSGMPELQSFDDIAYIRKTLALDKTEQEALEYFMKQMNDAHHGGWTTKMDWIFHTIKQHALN
T1 sequence (P27986 whole entry partner): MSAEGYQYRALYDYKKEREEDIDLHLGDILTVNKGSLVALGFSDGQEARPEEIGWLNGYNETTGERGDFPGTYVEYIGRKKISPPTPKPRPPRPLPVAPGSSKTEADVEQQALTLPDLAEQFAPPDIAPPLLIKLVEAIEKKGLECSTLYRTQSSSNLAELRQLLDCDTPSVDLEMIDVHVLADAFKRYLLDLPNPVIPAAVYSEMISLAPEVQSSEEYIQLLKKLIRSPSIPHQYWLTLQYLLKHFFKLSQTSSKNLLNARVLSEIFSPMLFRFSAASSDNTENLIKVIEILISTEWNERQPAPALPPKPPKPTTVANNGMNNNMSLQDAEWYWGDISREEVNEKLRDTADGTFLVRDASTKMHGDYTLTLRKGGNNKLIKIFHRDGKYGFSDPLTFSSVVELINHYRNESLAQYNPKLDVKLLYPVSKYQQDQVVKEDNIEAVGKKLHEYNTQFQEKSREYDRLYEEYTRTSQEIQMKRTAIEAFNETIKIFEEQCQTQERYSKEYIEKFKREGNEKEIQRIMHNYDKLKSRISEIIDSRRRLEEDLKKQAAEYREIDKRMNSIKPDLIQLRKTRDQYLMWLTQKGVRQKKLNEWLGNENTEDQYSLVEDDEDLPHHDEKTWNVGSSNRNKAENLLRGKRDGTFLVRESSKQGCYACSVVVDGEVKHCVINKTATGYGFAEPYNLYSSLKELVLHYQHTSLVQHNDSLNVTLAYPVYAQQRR

Row | IC50 (PI3Kα kinase) [nM] | IC50 (mTOR kinase) [nM] | SMILES
1 | < 100 | < 100 | COCC(=O)N1CCC(n2nnc3cnc4ccc(-c5cnc(N)c(C(F)(F)F)c5)nc4c32)CC1 [Compound 7]
2 | < 100 | < 100 | Nc1ncc(-c2ccc3ncc4nnn(C5CCN(C(=O)C6CC6)CC5)c4c3n2)cc1C(F)(F)F [Compound 9]
3 | < 100 | < 100 | Nc1ncc(-c2ccc3ncc4nnn(C5CCOCC5)c4c3n2)cc1C(F)(F)F [Compound 10]
4 | < 100 | < 100 | Nc1ncc(-c2ccc3ncc4nnn(Cc5ccc(F)cc5)c4c3c2)cn1 [Compound 12]
5 | < 100 | < 100 | Nc1ncc(-c2ccc3ncc4nnn(-c5ccc6[nH]ncc6c5)c4c3c2)cc1C(F)(F)F [Compound 14]
6 | < 100 | < 100 | CC(C)(C#N)c1ccc(-n2nnc3cnc4ccc(-c5cnc(N)c(C(F)(F)F)c5)nc4c32)cn1 [Compound 16]
7 | < 100 | < 100 | CC(C)(C#N)c1ccc(-n2nnc3cnc4ccc(-c5cnc(N)c(C(F)(F)F)c5)nc4c32)cc1 [Compound 17]
8 | < 100 | < 100 | C[C@@H](O)C(=O)N1CCC(n2nnc3cnc4ccc(-c5cnc(N)c(C(F)(F)F)c5)nc4c32)CC1 [Compound 21, (R)-1-(4-(8-(6-amino-5-(trifluoromethyl)pyridin-3-yl)-1H-[1,2,3]triazolo[4,5-c][1,5]naphthyridin-1-yl)piperidin-1-yl)-2-hydroxypropan-1-one]
9 | < 100 | < 100 | Nc1ncc(-c2ccc3ncc4nnn(C5CCN(C(=O)CO)CC5)c4c3n2)cc1C(F)(F)F [Compound 25]
10 | < 100 | < 100 | CC(C)(O)C(=O)N1CCC(n2nnc3cnc4ccc(-c5cnc(N)c(C(F)(F)F)c5)nc4c32)CC1 [Compound 26]
11 | < 100 | < 100 | CC(C)C(=O)N1CCC(n2nnc3cnc4ccc(-c5cnc(N)c(C(F)(F)F)c5)nc4c32)CC1 [Compound 30, 1-(4-(8-(6-amino-5-(trifluoromethyl)pyridin-3-yl)-1H-[1,2,3]triazolo[4,5-c][1,5]naphthyridin-1-yl)piperidin-1-yl)-2-methylpropan-1-one]
12 | < 100 | < 100 | N#CC1(C(=O)N2CCC(n3nnc4cnc5ccc(-c6cnc(N)c(C(F)(F)F)c6)nc5c43)CC2)CC1 [Compound 33]
13 | < 100 | < 100 | CCCC(=O)N1CCC(n2nnc3cnc4ccc(-c5cnc(N)c(C(F)(F)F)c5)nc4c32)CC1 [Compound 35]
14 | < 100 | < 100 | Cn1c(=O)n(-c2ccc(C(C)(C)C#N)nc2)c2c3cc(-c4cnc(N)nc4)ccc3ncc21 [Compound 42]
15 | < 100 | < 100 | CN(C)C(=O)CN1CCC(n2nnc3cnc4ccc(-c5cnc(N)c(C(F)(F)F)c5)nc4c32)CC1 [Compound 43, 2-(4-(8-(6-amino-5-(trifluoromethyl)pyridin-3-yl)-1H-[1,2,3]triazolo[4,5-c][1,5]naphthyridin-1-yl)piperidin-1-yl)-N,N-dimethylacetamide]
16 | < 100 | < 100 | CC1(CN2CCC(n3nnc4cnc5ccc(-c6cnc(N)c(C(F)(F)F)c6)nc5c43)CC2)COC1 [Compound 44]
17 | < 100 | < 100 | CCNC(=O)N1CCC(n2nnc3cnc4ccc(-c5cnc(N)c(C(F)(F)F)c5)nc4c32)CC1 [Compound 45]
18 | < 100 | < 100 | Nc1ncc(-c2ccc3ncc4nnn(C5CCN(CCO)CC5)c4c3n2)cc1C(F)(F)F [Compound 46]
19 | < 100 | < 100 | CC(C)(C#N)c1ccc(-c2nnc3cnc4ccc(-c5cnc(N)c(C(F)(F)F)c5)cc4n23)cc1 [Compound 49, 2-(4-(8-(6-amino-5-(trifluoromethyl)pyridin-3-yl)-[1,2,4]triazolo[4,3-a]quinoxalin-1-yl)phenyl)-2-methylpropanenitrile]
20 | < 100 | < 100 | CC(C)(C#N)c1ccc(-c2nnc3cnc4ccc(-c5ccc(N)nc5)cc4n23)cc1 [Compound 50]
21 | < 100 | < 100 | CC(C)(C#N)c1ccc(-c2nnc3cnc4ccc(-c5ccc6nc(N)sc6c5)cc4n23)cc1 [Compound 52]

Row | IC50 (PI3Kα kinase) [nM] | IC50 (mTOR kinase) [nM] | SMILES
22 | < 100 | < 100 | CC(C)(C#N)c1ccc(-c2nnc3cnc4ccc(-c5cnc6[nH]ncc6c5)cc4n23)cc1 [Compound 53]
23 | < 100 | < 100 | CC(C)(C#N)c1ccc(-c2nnc3cnc4ccc(-c5ccc6nc(N)oc6c5)cc4n23)cc1 [Compound 55]
24 | < 100 | < 100 | CC(C)(C#N)c1ccc(-c2nnc3cnc4ccc(-c5ccc6nc(N)sc6c5)cc4n23)cn1 [Compound 56]
25 | < 100 | < 100 | Cc1cc(-c2ccc3ncc4nnc(-c5ccc(C(C)(C)C#N)cc5)n4c3c2)cnc1N [Compound 58]
26 | < 100 | < 100 | N#Cc1cccc(-c2nnc3cnc4ccc(-c5ccc6nc(N)sc6c5)cc4n23)c1 [Compound 63]
27 | < 100 | < 100 | CC(C)(C#N)c1ccc(-c2nnc3cnc4ccc(-c5cnc(N)c(F)c5)cc4n23)cc1 [Compound 66]
28 | < 100 | < 100 | COc1cc(-c2ccc3ncc4nnc(-c5ccc(C(C)(C)C#N)cc5)n4c3c2)cnc1N [Compound 72]
29 | < 100 | < 100 | CCOc1cc(-c2ccc3ncc4nnc(-c5ccc(C(C)(C)C#N)cc5)n4c3c2)cnc1N [Compound 75]
30 | < 100 | < 100 | Nc1ncc(-c2ccc3ncc4ncn(C5CCN(C(=O)C6CC6)CC5)c4c3n2)cc1C(F)(F)F [Compound 88, (4-(8-(6-amino-5-(trifluoromethyl)pyridine-3-yl)-1H-imidazo[4,5-c][1,5]naphthyridin-1-yl)piperidin-1-yl)(cyclopropyl)methanone]
31 | < 100 | < 100 | CCC(=O)N1CCC(n2cnc3cnc4ccc(-c5cnc(N)c(C(F)(F)F)c5)nc4c32)CC1 [Compound 96]
32 | < 100 | < 100 | CN(C)C(=O)CN1CCC(n2cnc3cnc4ccc(-c5cnc(N)c(C(F)(F)F)c5)nc4c32)CC1 [Compound 98]
33 | < 100 | < 100 | CC(=O)N1CCC(n2cnc3cnc4ccc(-c5cnc(N)c(C(F)(F)F)c5)nc4c32)CC1 [Compound 102]
34 | < 100 | < 100 | CS(=O)(=O)N1CCC(n2cnc3cnc4ccc(-c5cnc(N)c(C(F)(F)F)c5)nc4c32)CC1 [Compound 103]
35 | < 100 | < 100 | CC1(CN2CCC(n3cnc4cnc5ccc(-c6cnc(N)c(C(F)(F)F)c6)nc5c43)CC2)COC1 [Compound 105]
36 | < 100 | < 100 | Nc1ncc(-c2ccc3ncc4ncn(C5CCOCC5)c4c3n2)cc1C(F)(F)F [Compound 106]
37 | < 100 | < 100 | C[C@H](O)C(=O)N1CCC(n2cnc3cnc4ccc(-c5cnc(N)c(C(F)(F)F)c5)nc4c32)CC1 [Compound 107]
38 | < 100 | < 100 | Cc1nc2cnc3ccc(-c4cnc(N)c(C(F)(F)F)c4)nc3c2n1C1CCN(C(=O)C2CC2)CC1 [Compound 119, (4-(8-(6-amino-5-(trifluoromethyl)pyridine-3yl)-2-methyl-1H-imidazo[4,5-c][1,5]naphthyridin-1-yl)piperidin-1-yl)(cyclopropyl)methanone]
39 | < 100 | < 100 | CCC(=O)N1CCC(n2c(C)nc3cnc4ccc(-c5cnc(N)c(C(F)(F)F)c5)nc4c32)CC1 [Compound 120]
40 | < 100 | < 100 | Cc1nc2cnc3ccc(-c4cnc(N)c(C(F)(F)F)c4)nc3c2n1C1CCN(CC2(C)COC2)CC1 [Compound 121]
41 | < 100 | < 100 | Cc1nc2cnc3ccc(-c4cnc(N)c(C(F)(F)F)c4)nc3c2n1C1CCN(C(=O)[C@H](C)O)CC1 [Compound 122]
